# According to patent publication US10988477B2 (Merck Patent GmbH, priority 2018, dated 2021):
# Read-outs that look alike come from different tables or passages of the source.
# Legend:
# GCN2 kinase = GCN2 kinase (Homo sapiens, UniProt Q9P2K8); assay: GCN2 enzyme inhibition assay (Transcreener ADP2 fluorescence polarization); assay type: biochemical; conditions: 280 μM ATP
# In short: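 Kinase activity is followed as ADP formation, measured by fluorescence polarization, using 4 nM enzyme with 280 μM ATP and 200 μM (RS)7 peptide at pH 7.5 and 25 °C for 1 h. Values come from a non-linear tight-binding fit.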
# [1] = molecular target: intracellular GCN2 (phosphorylation of the GCN2 substrate eIF2α) (Homo sapiens, UniProt Q9P2K8); assay: GCN2 cellular inhibition assay (AlphaScreen SureFire P-eIF2α Ser51, borrelidin-treated U2OS cells); assay type: cell-based
# In short: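 U2OS cells adhered overnight, then treated with compounds (4-fold serial dilutions from 40 μM final) plus borrelidin 10 μM final for 1 h at 37 °C. Lysate eIF2α Ser51 phosphorylation measured by AlphaScreen SureFire. Percent inhibition calculated relative to borrelidin-only wells.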
# [2] = compounds of Formula II, 4 nM GCN2 kinase
# [3] = compounds of Formula II, biomarker assay, phosphorylated eIF2α Ser51 in borrelidin-treated U2OS cells
# [4] = Enzyme activity for compounds of Formula IV, Ki(app), 25° C.
# [5] = compounds of Formula IV, biomarker assay, phosphorylated eIF2α Ser51 in borrelidin-treated U2OS cells
# Chain of GCN2 kinase (Q9P2K8 whole entry): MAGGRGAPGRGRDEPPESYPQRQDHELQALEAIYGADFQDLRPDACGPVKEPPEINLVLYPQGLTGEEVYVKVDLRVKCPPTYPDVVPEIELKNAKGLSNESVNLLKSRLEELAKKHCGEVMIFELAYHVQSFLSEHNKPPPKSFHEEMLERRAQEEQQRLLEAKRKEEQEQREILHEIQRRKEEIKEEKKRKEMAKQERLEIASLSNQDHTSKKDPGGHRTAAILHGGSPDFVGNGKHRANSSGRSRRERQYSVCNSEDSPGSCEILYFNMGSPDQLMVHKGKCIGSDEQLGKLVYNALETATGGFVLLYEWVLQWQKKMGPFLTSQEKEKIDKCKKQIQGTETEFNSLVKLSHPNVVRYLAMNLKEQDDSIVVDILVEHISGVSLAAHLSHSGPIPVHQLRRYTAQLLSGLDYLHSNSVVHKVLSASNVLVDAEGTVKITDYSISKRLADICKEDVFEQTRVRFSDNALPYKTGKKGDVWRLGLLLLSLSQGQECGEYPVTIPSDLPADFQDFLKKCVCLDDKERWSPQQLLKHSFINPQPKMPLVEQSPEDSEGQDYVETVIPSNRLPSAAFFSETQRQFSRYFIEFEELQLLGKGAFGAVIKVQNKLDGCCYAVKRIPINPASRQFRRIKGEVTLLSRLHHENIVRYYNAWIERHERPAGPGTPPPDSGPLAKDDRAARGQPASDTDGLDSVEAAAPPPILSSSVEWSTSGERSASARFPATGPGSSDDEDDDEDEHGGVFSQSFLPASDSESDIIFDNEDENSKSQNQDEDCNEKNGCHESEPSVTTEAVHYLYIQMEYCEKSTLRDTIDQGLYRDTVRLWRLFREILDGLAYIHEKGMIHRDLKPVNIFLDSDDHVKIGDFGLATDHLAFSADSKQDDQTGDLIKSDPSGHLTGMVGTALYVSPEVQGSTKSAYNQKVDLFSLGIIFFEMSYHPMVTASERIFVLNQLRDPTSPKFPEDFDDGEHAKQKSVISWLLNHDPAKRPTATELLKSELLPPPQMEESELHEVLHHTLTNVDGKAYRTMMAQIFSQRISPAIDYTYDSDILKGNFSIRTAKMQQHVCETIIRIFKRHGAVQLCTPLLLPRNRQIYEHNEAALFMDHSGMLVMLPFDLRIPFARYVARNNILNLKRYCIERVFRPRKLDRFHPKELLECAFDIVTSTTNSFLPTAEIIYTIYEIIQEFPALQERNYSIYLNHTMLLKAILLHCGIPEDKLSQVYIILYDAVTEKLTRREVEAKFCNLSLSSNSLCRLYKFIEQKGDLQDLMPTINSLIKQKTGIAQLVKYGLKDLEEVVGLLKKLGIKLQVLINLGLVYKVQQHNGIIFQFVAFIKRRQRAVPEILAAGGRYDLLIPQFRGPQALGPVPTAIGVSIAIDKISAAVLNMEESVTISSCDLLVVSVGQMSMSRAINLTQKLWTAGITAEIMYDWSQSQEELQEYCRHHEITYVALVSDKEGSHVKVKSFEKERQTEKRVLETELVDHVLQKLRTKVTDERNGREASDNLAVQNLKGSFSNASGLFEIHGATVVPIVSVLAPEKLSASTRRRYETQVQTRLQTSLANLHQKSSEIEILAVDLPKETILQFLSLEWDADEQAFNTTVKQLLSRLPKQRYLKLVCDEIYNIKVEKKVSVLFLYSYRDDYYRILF
# Chain of intracellular GCN2 (phosphorylation of the GCN2 substrate eIF2α) (Q9P2K8 whole entry): as above
SMILES,Ki (GCN2 kinase; [2]) [nM],"IC50 [1, 3] [nM]",Ki (GCN2 kinase; [4]) [nM],"IC50 [1, 5] [nM]",further results
"CC1C(CNS(C)(=O)=O)C(F)(F)C(C)CN1c1cc(-c2cnc3ccc(C(F)F)nn23)ncn1 (single isomer, unassigned) [II-469, N-((1-(6-(6-(Difluoromethyl)imidazo[1,2-b]pyridazin-3-yl)pyrimidin-4-yl)-4,4-difluoro-2,5-dimethylpiperidin-3-yl)methyl)methanesulfonamide]",10 to 1000,500 to 5000,,,
"CC1CN(c2ccnc(-c3cnc4cnc(Br)cn34)n2)CC(c2cn[nH]c2)N1 (single isomer, unassigned) [IV-364, 6-Bromo-3-(4-(3-methyl-5-(1H-pyrazol-4-yl)piperazin-1-yl)pyrimidin-2-yl)imidazo[1,2-a]pyrazine]",,,10 to 100,500 to 5000,
"CC1CN(c2nccc(-c3cnc4cnc(Br)cn34)n2)C(C)C(c2cn[nH]c2)N1 (single isomer, unassigned) [IV-404, 6-Bromo-3-(2-(2,5-dimethyl-3-(1H-pyrazol-4-yl)piperazin-1-yl)pyrimidin-4-yl)imidazo[1,2-a]pyrazine]",,,100 to 1000,500 to 5000,
"COC1CC(CNS(C)(=O)=O)CN(c2cc(-c3cnc4ccc(C(F)F)nn34)ncn2)C1 (stereo not shown) [II-198, N-((1-(6-(6-(Difluoromethyl)imidazo[1,2-b]pyridazin-3-yl)pyrimidin-4-yl)-5-methoxypiperidin-3-yl)methyl)methanesulfonamide]",10 to 1000,> 5000,,,
"O=C(O)[C@H]1CCCN(c2cc(-c3cnc4ccc(C(F)(F)F)nn34)ncn2)C1 [II-504, (S)-1-(6-(6-(Trifluoromethyl)imidazo[1,2-b]pyridazin-3-yl)pyrimidin-4-yl)piperidine-3-carboxylic acid]",10 to 1000,> 5000,,,
"CNC(=O)c1cc(C2CCCN(c3ccnc(-c4cnc5cnc(C(F)F)cn45)n3)C2)n[nH]1 (stereo not shown) [IV-95, 3-(1-(2-(6-(Difluoromethyl)imidazo[1,2-a]pyrazin-3-yl)pyrimidin-4-yl)piperidin-3-yl)-N-methyl-1H-pyrazole-5-carboxamide]",,,100 to 1000,> 5000,
"CC1C(CNS(C)(=O)=O)N(C)C(C)CN1c1cc(-c2cnc3ccc(C(F)F)nn23)ncn1 (stereo not shown) [II-448, N-((4-(6-(6-(Difluoromethyl)imidazo[1,2-b]pyridazin-3-yl)pyrimidin-4-yl)-1,3,6-trimethylpiperazin-2-yl)methyl)methanesulfonamide]",< 10,< 500,,,
"O=S(=O)(C1CCCN(c2ccnc(-c3cnc4cnc(C(F)F)cn34)n2)C1)N1CCOCC1 (stereo not shown) [IV-172, 4-((1-(2-(6-(Difluoromethyl)imidazo[1,2-a]pyrazin-3-yl)pyrimidin-4-yl)piperidin-3-yl)sulfonyl)morpholine]",,,100 to 1000,> 5000,
"CN1CCN(c2cc(-c3cnc4ccc(C(F)F)nn34)ccn2)CC1CO (stereo not shown) [II-97, (4-(4-(6-(Difluoromethyl)imidazo[1,2-b]pyridazin-3-yl)pyridin-2-yl)-1-methylpiperazin-2-yl)methanol]",10 to 1000,> 5000,,,
"CC1CN(c2ccnc(-c3cnc4cnc(Cl)cn34)n2)CC(c2cn[nH]c2)N1 (single isomer, unassigned) [IV-214, 6-Chloro-3-(4-(3-methyl-5-(1H-pyrazol-4-yl)piperazin-1-yl)pyrimidin-2-yl)imidazo[1,2-a]pyrazine]",,,< 10,< 500,
"CC1(C)COC(CNS(C)(=O)=O)CN1c1cc(-c2cnc3ccc(C(F)F)nn23)ncn1 (stereo not shown) [II-457, N-((4-(6-(6-(Difluoromethyl)imidazo[1,2-b]pyridazin-3-yl)pyrimidin-4-yl)-5,5-dimethylmorpholin-2-yl)methyl)methanesulfonamide]",10 to 1000,500 to 5000,,,
"CC1CN(c2ccnc(-c3cnc4cnc(Cl)cn34)n2)CC(c2cn[nH]c2)N1 (single isomer, unassigned) [IV-213, 6-Chloro-3-(4-(3-methyl-5-(1H-pyrazol-4-yl)piperazin-1-yl)pyrimidin-2-yl)imidazo[1,2-a]pyrazine]",,,10 to 100,500 to 5000,
"Cc1cc(C2CCCN(c3ccnc(-c4cnc5cnc(C(F)F)cn45)n3)C2)n[nH]1 (stereo not shown) [IV-112, 6-(Difluoromethyl)-3-(4-(3-(5-methyl-1H-pyrazol-3-yl)piperidin-1-yl)pyrimidin-2-yl)imidazo[1,2-a]pyrazine]",,,100 to 1000,> 5000,
"COc1cc(N2CC(C)NC(c3cn[nH]c3)C2C)nc(-c2cnc3cnc(C(F)(F)F)cn23)n1 (stereo not shown) [IV-593, 3-(4-(2,5-Dimethyl-3-(1H-pyrazol-4-yl)piperazin-1-yl)-6-methoxypyrimidin-2-yl)-6-(trifluoromethyl)imidazo[1,2-a]pyrazine]",,,< 10,500 to 5000,
"NC(=O)c1cc(C2CCCN(c3ccnc(-c4cnc5cnc(C(F)F)cn45)n3)C2)n[nH]1 (stereo not shown) [IV-94, 3-(1-(2-(6-(Difluoromethyl)imidazo[1,2-a]pyrazin-3-yl)pyrimidin-4-yl)piperidin-3-yl)-1H-pyrazole-5-carboxamide]",,,100 to 1000,> 5000,
"CC1CN(c2ccnc(-c3cnc4cnc(C(F)(F)F)cn34)n2)CC(c2cn[nH]c2Cl)N1 (single isomer, unassigned) [IV-652, 3-[4-[3-(5-Chloro-1H-pyrazol-4-yl)-5-methyl-piperazin-1-yl]pyrimidin-2-yl]-6-(trifluoromethyl)imidazo[1,2-a]pyrazine]",,,10 to 100,500 to 5000,
"FC(F)c1cn2c(-c3nccc(N4CCC5(CCNCC5)C4)n3)cnc2cn1 [IV-140, 2-(2-(6-(Difluoromethyl)imidazo[1,2-a]pyrazin-3-yl)pyrimidin-4-yl)-2,8-diazaspiro[4.5]decane]",,,100 to 1000,> 5000,
"C[C@@H]1C[C@H](CS(C)(=N)=O)[C@H](C)N(c2cc(-c3cnc4ccc(C(F)F)nn34)ncn2)C1 (stereo partly drawn) [II-607, (((2S,3S,5R)-1-(6-(6-(Difluoromethyl)imidazo[1,2-b]pyridazin-3-yl)pyrimidin-4-yl)-2,5-dimethylpiperidin-3-yl)methyl)(imino)(methyl)-λ^6-sulfanone]",< 10,< 500,,,
"Cc1n[nH]c(C)c1C1CCN(c2ccnc(-c3cnc4cnc(C(F)(F)F)cn34)n2)C1 (stereo not shown) [IV-574, 3-(4-(3-(3,5-Dimethyl-1H-pyrazol-4-yl)pyrrolidin-1-yl)pyrimidin-2-yl)-6-(trifluoromethyl)imidazo[1,2-a]pyrazine]",,,10 to 100,> 5000,
"CC1CN(c2ccnc(-c3cnc4cnc(Br)cn34)n2)C(C)C(c2c[nH]cn2)N1 (stereo not shown) [IV-373, 3-(4-(3-(1H-Imidazol-4-yl)-2,5-dimethylpiperazin-1-yl)pyrimidin-2-yl)-6-bromoimidazo[1,2-a]pyrazine]",,,< 10,500 to 5000,
"C[C@H](NS(C)(=O)=O)[C@@H]1CN(c2cc(-c3cnc4ccc(C(F)F)nn34)ncn2)CCO1 (single isomer, unassigned) [II-509]",< 10,< 500,,,
"CC1CC(CNS(C)(=O)=O)CN(c2cc(-c3cnc4ccc(C(F)F)nn34)ncn2)C1 (stereo not shown) [II-398, N-((1-(6-(6-(Difluoromethyl)imidazo[1,2-b]pyridazin-3-yl)pyrimidin-4-yl)-5-methylpiperidin-3-yl)methyl)methanesulfonamide]",10 to 1000,500 to 5000,,,
"CC1C(CNS(C)(=O)=O)N(C2CC2)CCN1c1cc(-c2cnc3ccc(C(F)F)nn23)ncn1 (single isomer, unassigned) [II-478, N-((1-Cyclopropyl-4-(6-(6-(difluoromethyl)imidazo[1,2-b]pyridazin-3-yl)pyrimidin-4-yl)-3-methylpiperazin-2-yl)methyl)methanesulfonamide]",10 to 1000,500 to 5000,,,
"Brc1cn2c(-c3nccc(N4CCNC(c5cn[nH]c5)C4)n3)cnc2cn1 (stereo not shown) [IV-371, 3-(4-(3-(1H-Pyrazol-4-yl)piperazin-1-yl)pyrimidin-2-yl)-6-bromoimidazo[1,2-a]pyrazine]",,,10 to 100,500 to 5000,
"FC(F)(F)c1cn2c(-c3nccc(N4CCO[C@@H](c5cn[nH]c5)C4)n3)cnc2s1 (stereo in doubt) [Compound V-4, 2-(1H-pyrazol-4-yl)-4-(2-(2-(trifluoromethyl)imidazo[2,1-b]thiazol-5-yl)pyrimidin-4-yl)morpholine]",,,,,"Ki (GCN2 kinase; compounds of Formula V, 4 nM GCN2 kinase): 10 to 100 nM; IC50 ([1]; compounds of Formula V, U2OS cells, 10 μM borrelidin, 1 h, read-out: GCN2 Biomarker (IC50)): 500 to 5000 nM"
"FC(F)c1cn2c(-c3nccc(N4CCOCC4)n3)cnc2cn1 [IV-104, 4-(2-(6-(Difluoromethyl)imidazo[1,2-a]pyrazin-3-yl)pyrimidin-4-yl)morpholine]",,,100 to 1000,> 5000,
"CC1C(C(N)=O)CCN1c1ccnc(-c2cnc3cnc(C(F)(F)F)cn23)n1 (single isomer, unassigned) [IV-615, 2-Methyl-1-(2-(6-(trifluoromethyl)imidazo[1,2-a]pyrazin-3-yl)pyrimidin-4-yl)pyrrolidine-3-carboxamide]",,,10 to 100,500 to 5000,
"CC1CN(c2ccnc(-c3cnc4cnc(C(F)(F)F)cn34)n2)C(C)C(c2cn[nH]c2)O1 (single isomer, unassigned) [IV-451, 3,6-Dimethyl-2-(1H-pyrazol-4-yl)-4-(2-(6-(trifluoromethyl)imidazo[1,2-a]pyrazin-3-yl)pyrimidin-4-yl)morpholine]",,,< 10,< 500,
"CC(=O)N1CCN(c2cc(-c3cnc4ccc(N5CCOCC5)nn34)ccn2)CC1 [II-738, 1-(4-(4-(6-morpholinoimidazo[1,2-b]pyridazin-3-yl)pyridin-2-yl)piperazin-1-yl)ethan-1-one]",> 1000,> 5000,,,
